Here are results for six molecules from paper PMC8703412 (Pharmaceuticals, 2021).

In brackets after ≈: the same amount, converted by molar mass. Where two headings read alike, the source gives them in different places.

Some test systems named below: Mtb. Praha 1 (MDR-TB); Mtb. Praha 4 (MDR-TB); Mtb. Praha 131 (XDR-TB); Mtb. 234/2005 (MDR-TB); Mtb. 9449/2007 (MDR-TB); Mtb. 7357/1998 (MDR-TB); Mtb. 8666/2010 (MDR-TB).
Holding throughout (assay): microbe, parasite or virus in culture
What all share (assay type): cell-based, Mycobacterium tuberculosis
What all share (conditions): for MIC: Mycobacterium tuberculosis

Where [1] appears, read: 336 h, read-out: MIC Mtb. Praha 1 14 d.
Setting [2] is: 504 h, read-out: MIC Mtb. Praha 1 21 d.
Where [3] appears, read: 336 h, read-out: MIC Mtb. Praha 4 14 d.
[4] abbreviates: 504 h, read-out: MIC Mtb. Praha 4 21 d.
Where [5] appears, read: 336 h, read-out: MIC Mtb. Praha 131 14 d.
Where [6] appears, read: 504 h, read-out: MIC Mtb. Praha 131 21 d.
The mark [7] stands for this setting: 336 h, read-out: MIC Mtb. 234/2005 14 d.
[8] abbreviates: 504 h, read-out: MIC Mtb. 234/2005 21 d.
Setting [9] is: 336 h, read-out: MIC Mtb. 9449/2007 14 d.
The mark [10] stands for this setting: 504 h, read-out: MIC Mtb. 9449/2007 21 d.
Where [11] appears, read: 336 h, read-out: MIC Mtb. 7357/1998 14 d.
Where [12] appears, read: 504 h, read-out: MIC Mtb. 7357/1998 21 d.
Setting [13] is: 336 h, read-out: MIC Mtb. 8666/2010 14 d.
Where [14] appears, read: 504 h, read-out: MIC Mtb. 8666/2010 21 d.

As for `CC(=O)Nc1ccc(OC(=O)C(C)=NNC(=O)c2ccncc2)cc1` [3p, 4-Acetamidophenyl 2-(2-isonicotinoylhydrazineylidene)propanoate], the MIC in the assay on Mtb. Praha 1 (MDR-TB) (setting [1]) turned out to be 125 µM (≈ 42.5 µg/mL); in the assay with Mtb. Praha 1 (MDR-TB) (setting [2]) it was 125 µM (≈ 42.5 µg/mL); with Mtb. Praha 4 (MDR-TB) (setting [3]), 32 µM (≈ 10.9 µg/mL); in the assay on Mtb. Praha 4 (MDR-TB) (setting [4]), 32 µM (≈ 10.9 µg/mL); in the assay with Mtb. Praha 131 (XDR-TB) (setting [5]), 32 µM (≈ 10.9 µg/mL); with Mtb. Praha 131 (XDR-TB) (setting [6]), 64 µM (≈ 21.8 µg/mL). The MIC came out at 32 µM (≈ 10.9 µg/mL) with Mtb. 234/2005 (MDR-TB) (setting [7]); 64 µM (≈ 21.8 µg/mL) in the assay with Mtb. 234/2005 (MDR-TB) (setting [8]); 32 µM (≈ 10.9 µg/mL) in the assay with Mtb. 9449/2007 (MDR-TB) (setting [9]); 64 µM (≈ 21.8 µg/mL) in the assay with Mtb. 9449/2007 (MDR-TB) (setting [10]); 16 µM (≈ 5.45 µg/mL) in the assay with Mtb. 7357/1998 (MDR-TB) (setting [11]); 32 µM (≈ 10.9 µg/mL) in the assay on Mtb. 7357/1998 (MDR-TB) (setting [12]). The MIC in the assay on Mtb. 8666/2010 (MDR-TB) (setting [13]) and in the assay with Mtb. 8666/2010 (MDR-TB) (setting [14]) was 32 µM (≈ 10.9 µg/mL) each time.

As for “5-Isopropyl-2-methylphenyl (E)-2-(2-isonicotinoylhydrazineylidene)propanoate [3k]”, the “MIC Mtb. Praha 1 14 d” value in the assay on Mtb. Praha 1 (MDR-TB) (14 d incubation) stood at 125 µM. In addition, the “MIC Mtb. Praha 1 21 d” value against Mtb. Praha 1 (MDR-TB) (21 d incubation) was found to be 125 µM. Further, in the assay on Mtb. Praha 4 (MDR-TB) (14 d incubation), the “MIC Mtb. Praha 4 14 d” value stood at 16 µM. Moreover, the “MIC Mtb. Praha 4 21 d” value against Mtb. Praha 4 (MDR-TB) (21 d incubation) came to 32 µM. In the assay on Mtb. Praha 131 (XDR-TB) (14 d incubation), the “MIC Mtb. Praha 131 14 d” value was 32 µM. In the assay with Mtb. Praha 131 (XDR-TB) (21 d incubation), the “MIC Mtb. Praha 131 21 d” value worked out at 64 µM. The “MIC Mtb. 234/2005 14 d” value with Mtb. 234/2005 (MDR-TB) (14 d incubation) turned out to be 32 µM. Also, the “MIC Mtb. 234/2005 21 d” value in the assay with Mtb. 234/2005 (MDR-TB) (21 d incubation) stood at 32 µM. Further, in the assay with Mtb. 9449/2007 (MDR-TB) (14 d incubation), the “MIC Mtb. 9449/2007 14 d” value is given as 32 µM. Besides, the “MIC Mtb. 9449/2007 21 d” value in the assay on Mtb. 9449/2007 (MDR-TB) (21 d incubation) was 32 µM. Also, the “MIC Mtb. 7357/1998 14 d” value against Mtb. 7357/1998 (MDR-TB) (14 d incubation) amounted to 32 µM. The “MIC Mtb. 7357/1998 21 d” value in the assay on Mtb. 7357/1998 (MDR-TB) (21 d incubation) is on record as 32 µM. For the same molecule, in the assay with Mtb. 8666/2010 (MDR-TB) (14 d incubation), the “MIC Mtb. 8666/2010 14 d” value amounted to 16 µM. In addition, the “MIC Mtb. 8666/2010 21 d” value against Mtb. 8666/2010 (MDR-TB) (21 d incubation) was determined as 32 µM.

Consider `C/C(=N\NC(=O)c1ccncc1)C(=O)Oc1ccc(Cl)cc1` [3g, 4-Chlorophenyl (E)-2-(2-isonicotinoylhydrazineylidene)propanoate], for which the MIC in the assay on Mtb. Praha 1 (MDR-TB) (setting [1]) is 8 µM (≈ 2.54 µg/mL); in the assay with Mtb. Praha 1 (MDR-TB) (setting [2]) it was 8 µM (≈ 2.54 µg/mL); in the assay on Mtb. Praha 4 (MDR-TB) (setting [3]) it was 16 µM (≈ 5.08 µg/mL); in the assay with Mtb. Praha 4 (MDR-TB) (setting [4]), 16 µM (≈ 5.08 µg/mL); with Mtb. Praha 131 (XDR-TB) (setting [5]), 8 µM (≈ 2.54 µg/mL); with Mtb. Praha 131 (XDR-TB) (setting [6]), 8 µM (≈ 2.54 µg/mL). The MIC in the assay with Mtb. 234/2005 (MDR-TB) (setting [7]) turned out to be 16 µM (≈ 5.08 µg/mL); with Mtb. 234/2005 (MDR-TB) (setting [8]) it was 32 µM (≈ 10.2 µg/mL); in the assay on Mtb. 9449/2007 (MDR-TB) (setting [9]) it was 16 µM (≈ 5.08 µg/mL); in the assay on Mtb. 9449/2007 (MDR-TB) (setting [10]) it was 16 µM (≈ 5.08 µg/mL); with Mtb. 7357/1998 (MDR-TB) (setting [11]), 16 µM (≈ 5.08 µg/mL); in the assay on Mtb. 7357/1998 (MDR-TB) (setting [12]) it was 16 µM (≈ 5.08 µg/mL). For the same molecule, the MIC with Mtb. 8666/2010 (MDR-TB) (setting [13]) was 8 µM (≈ 2.54 µg/mL); with Mtb. 8666/2010 (MDR-TB) (setting [14]) it was 16 µM (≈ 5.08 µg/mL).

With `C/C(=N\NC(=O)c1ccncc1)C(=O)Oc1cc(C(C)C)ccc1C` [3l, 2-Isopropyl-5-methyphenyl (E)-2-(2-isonicotinoylhydrazineylidene)propanoate], the MIC stood at 32 µM (≈ 10.9 µg/mL) in the assay on Mtb. Praha 1 (MDR-TB) (setting [1]); 64 µM (≈ 21.7 µg/mL) in the assay with Mtb. Praha 1 (MDR-TB) (setting [2]); 8 µM (≈ 2.72 µg/mL) with Mtb. Praha 4 (MDR-TB) (setting [3]); 16 µM (≈ 5.43 µg/mL) with Mtb. Praha 4 (MDR-TB) (setting [4]); 32 µM (≈ 10.9 µg/mL) in the assay with Mtb. Praha 131 (XDR-TB) (setting [5]); 64 µM (≈ 21.7 µg/mL) in the assay on Mtb. Praha 131 (XDR-TB) (setting [6]). The MIC was determined as 16 µM (≈ 5.43 µg/mL) with Mtb. 234/2005 (MDR-TB) (setting [7]); 32 µM (≈ 10.9 µg/mL) in the assay with Mtb. 234/2005 (MDR-TB) (setting [8]); 16 µM (≈ 5.43 µg/mL) with Mtb. 9449/2007 (MDR-TB) (setting [9]); 32 µM (≈ 10.9 µg/mL) with Mtb. 9449/2007 (MDR-TB) (setting [10]); 16 µM (≈ 5.43 µg/mL) in the assay with Mtb. 7357/1998 (MDR-TB) (setting [11]); 32 µM (≈ 10.9 µg/mL) in the assay with Mtb. 7357/1998 (MDR-TB) (setting [12]). The MIC in the assay on Mtb. 8666/2010 (MDR-TB) (setting [13]) and in the assay with Mtb. 8666/2010 (MDR-TB) (setting [14]) was 16 µM (≈ 5.43 µg/mL) throughout.

For the molecule `C/C(=N\NC(=O)c1ccncc1)C(=O)Oc1ccc2ccccc2c1` [3j, Naphthalen-2-yl (E)-2-(2-isonicotinoylhydrazineylidene)propanoate], the MIC with Mtb. Praha 1 (MDR-TB) (setting [1]) worked out at 125 µM (≈ 41.7 µg/mL); with Mtb. Praha 1 (MDR-TB) (setting [2]), 125 µM (≈ 41.7 µg/mL); in the assay on Mtb. Praha 4 (MDR-TB) (setting [3]) it was 32 µM (≈ 10.7 µg/mL); in the assay on Mtb. Praha 4 (MDR-TB) (setting [4]), 32 µM (≈ 10.7 µg/mL); in the assay on Mtb. Praha 131 (XDR-TB) (setting [5]), 32 µM (≈ 10.7 µg/mL); with Mtb. Praha 131 (XDR-TB) (setting [6]) it was 32 µM (≈ 10.7 µg/mL). In addition, the MIC with Mtb. 234/2005 (MDR-TB) (setting [7]) came out at 16 µM (≈ 5.33 µg/mL); in the assay on Mtb. 234/2005 (MDR-TB) (setting [8]), 32 µM (≈ 10.7 µg/mL); in the assay with Mtb. 9449/2007 (MDR-TB) (setting [9]), 32 µM (≈ 10.7 µg/mL); in the assay on Mtb. 9449/2007 (MDR-TB) (setting [10]), 32 µM (≈ 10.7 µg/mL); in the assay on Mtb. 7357/1998 (MDR-TB) (setting [11]), 32 µM (≈ 10.7 µg/mL); in the assay on Mtb. 7357/1998 (MDR-TB) (setting [12]) it was 32 µM (≈ 10.7 µg/mL). Further, the values for the MIC with Mtb. 8666/2010 (MDR-TB) (setting [13]) and in the assay with Mtb. 8666/2010 (MDR-TB) (setting [14]) were 16 µM (≈ 5.33 µg/mL) and 32 µM (≈ 10.7 µg/mL), respectively.

Consider `C/C(=N\NC(=O)c1ccncc1)C(=O)Oc1cc(Cl)ccc1Oc1ccc(Cl)cc1Cl` [3o, 5-Chloro-2-(2,4-dichlorophenoxy)phenyl (E)-2-(2-isonicotinoylhydrazineylidene)propanoate], for which the MIC amounted to 125 µM (≈ 59.8 µg/mL) in the assay on Mtb. Praha 1 (MDR-TB) (setting [1]); 125 µM (≈ 59.8 µg/mL) in the assay with Mtb. Praha 1 (MDR-TB) (setting [2]); 32 µM (≈ 15.3 µg/mL) in the assay with Mtb. Praha 4 (MDR-TB) (setting [3]); 32 µM (≈ 15.3 µg/mL) in the assay with Mtb. Praha 4 (MDR-TB) (setting [4]); 32 µM (≈ 15.3 µg/mL) in the assay on Mtb. Praha 131 (XDR-TB) (setting [5]); 32 µM (≈ 15.3 µg/mL) with Mtb. Praha 131 (XDR-TB) (setting [6]). Further, the MIC in the assay on Mtb. 234/2005 (MDR-TB) (setting [7]), in the assay with Mtb. 234/2005 (MDR-TB) (setting [8]), in the assay on Mtb. 9449/2007 (MDR-TB) (setting [9]), with Mtb. 9449/2007 (MDR-TB) (setting [10]), with Mtb. 7357/1998 (MDR-TB) (setting [11]) and in the assay on Mtb. 7357/1998 (MDR-TB) (setting [12]) was 32 µM (≈ 15.3 µg/mL) throughout. For the same molecule, the MIC with Mtb. 8666/2010 (MDR-TB) (setting [13]) and in the assay on Mtb. 8666/2010 (MDR-TB) (setting [14]) was 32 µM (≈ 15.3 µg/mL) throughout.
